Test results reported in patent publication US20230339952A1, “MACROCYCLIC HETEROCYCLES AND USES THEREOF” (Kumquat Biosciences Inc., priority 2022, published 2023).

Tests used:
SOS1 = SOS1 (Homo sapiens (Human), UniProt Q07889); assay: Ras-SOS interaction assay (HTRF), K-Ras G13D utilized; type: binding; conditions: K-Ras G13D, read-out: SOS1 IC50
[1] = system: NCI-H1975 (ATCC CRL-5908) cell line comprising an EGFR T790M L858R double mutation; assay: EGFR-SOS cellular inhibition assay (CellTiter-Glo cell proliferation); type: cell-based; conditions: Homo sapiens, 120 h; NCI-H1975 cell proliferation, approximately 5 days; read-out: H1975 IC50
Experimental: A CellTiter-Glo (CTG) luminescent based assay (Promega) is used to assess growth of the cells, as a measurement of the ability of the compounds herein to inhibit EGFR signaling in the cells. […] The day after plating, cells are treated with a dilution series (e.g., a 9 point 3-fold dilution series) of the compounds herein (e.g., approximately 125 μL final volume per well).

Sequence of SOS1 (Q07889 564-1049): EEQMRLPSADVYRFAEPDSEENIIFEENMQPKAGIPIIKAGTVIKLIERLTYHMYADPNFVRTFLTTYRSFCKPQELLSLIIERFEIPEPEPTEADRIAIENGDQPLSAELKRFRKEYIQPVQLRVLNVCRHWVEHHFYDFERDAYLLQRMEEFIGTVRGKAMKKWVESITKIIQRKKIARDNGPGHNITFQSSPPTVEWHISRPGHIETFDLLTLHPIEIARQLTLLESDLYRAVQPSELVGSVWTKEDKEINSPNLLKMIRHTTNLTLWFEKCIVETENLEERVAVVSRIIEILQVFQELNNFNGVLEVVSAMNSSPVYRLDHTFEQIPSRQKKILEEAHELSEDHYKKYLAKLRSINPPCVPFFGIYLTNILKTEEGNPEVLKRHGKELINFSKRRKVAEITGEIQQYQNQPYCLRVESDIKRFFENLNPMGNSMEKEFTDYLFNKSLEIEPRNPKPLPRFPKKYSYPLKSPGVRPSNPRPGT

Row | IC50 (SOS1) | IC50 [1] | Structure (SMILES)
1 | < 100 nM | < 1000 nM | C[C@H]1Nc2ncnc3c2cc(C2(C#N)CC2)c(=O)n3CCC/C=C/CN2CCC(CC2)CC(F)(F)c2cccc1c2F [Compound 89, 1-((3R,E)-4^2,5,5-trifluoro-3-methyl-1^7-oxo-1^7,1^8-dihydro-2-aza-1(4,8)-pyrido[2,3-d]pyrimidina-7(4,1)-piperidina-4(1,3)-benzenacyclotridecaphan-9-en-1^6-yl)cyclopropane-1-carbonitrile]
2 | < 100 nM | < 1000 nM | C[C@H]1Nc2ncnc3c2cc(C2(C#N)CC2)c(=O)n3CCCn2cc(nn2)CN2CCC(CC2)C(F)(F)c2cccc1c2 [Compound 95, 1-((6R,Z)-4,4-difluoro-6-methyl-8^7-oxo-8^7,8^8-dihydro-11H-7-aza-8(4,8)-pyrido[2,3-d]pyrimidina-3(1,4)-piperidina-1(4,1)-triazola-5(1,3)-benzenacycloundecaphane-8^6-yl)cyclopropane-1-carbonitrile]
3 | < 100 nM | < 1000 nM | CC1C/C=C\CCCN2CCC(CC2)C(F)(F)c2cccc(c2F)[C@@H](C)Nc2ncnc3c2cc(C2(C#N)CC2)c(=O)n31 (stereo partly drawn) [Compound 97, 1-((4R,Z)-3^2,2,2-trifluoro-4,7-dimethyl-6^7-oxo-6^7,6^8-dihydro-5-aza-6(4,8)-pyrido[2,3-d]pyrimidina-1(4,1)-piperidina-3(1,3)-benzenacyclotridecaphan-9-en-6^6-yl)cyclopropane-1-carbonitrile]
4 | < 100 nM | < 1000 nM | C[C@H]1Nc2ncnc3c2cc(C2(C#N)CC2)c(=O)n3CC(=O)NCCC[C@H](C)N2CCC(CC2)C(F)(F)c2cccc1c2F [Compound 98, 1-((4R,13S)-3^2,2,2-trifluoro-4,13-dimethyl-6^7,8-dioxo-6^7,6^8-dihydro-5,9-diaza-6(4,8)-pyrido[2,3-d]pyrimidina-1(4,1)-piperidina-3(1,3)-benzenacyclotridecaphane-6^6-yl)cyclopropane-1-carbonitrile]
5 | < 100 nM | < 1000 nM | C[C@H]1Nc2ncnc3c2cc(C2(C#N)CC2)c(=O)n3CCCCCCN2CCC(CC2)C(F)(F)c2cccc1c2 [Compound 104, 1-((4R)-2,2-difluoro-4-methyl-6^7-oxo-6^7,6^8-dihydro-5-aza-6(4,8)-pyrido[2,3-d]pyrimidina-1(4,1)-piperidina-3(1,3)-benzenacyclododecaphane-6^6-yl)cyclopropane-1-carbonitrile]
6 | < 100 nM | < 1000 nM | CC1C/C=C\CCn2c(=O)c(C3CCS(=O)(=O)CC3)cc3c(ncnc32)N[C@H](C)c2cccc(c2F)C(F)(F)C2CCN(CC2)C1 (stereo partly drawn) [Compound 107, (4R,Z)-6^6-(1,1-dioxidotetrahydro-2H-thiopyran-4-yl)-3^2,2,2-trifluoro-4,12-dimethyl-6^7,6^8-dihydro-5-aza-6(4,8)-pyrido[2,3-d]pyrimidina-1(4,1)-piperidina-3(1,3)-benzenacyclotridecaphan-9-en-6^7-one]

Further lines, the molecule ahead of its results:

Row | Structure (SMILES) | IC50 (SOS1) | IC50 [1]
7 | C[C@H]1Nc2ncnc3c2cc(C2CCS(=O)(=O)CC2)c(=O)n3CC(=O)N(C)CCCCN2CCC(CC2(C)C)C(F)(F)c2cccc1c2 (stereo partly drawn) [Compound 78, (1^4R,4R)-6^6-(1,1-dioxidotetrahydro-2H-thiopyran-4-yl)-2,2-difluoro-1^2,1^2,4,9-tetramethyl-6^7,6^8-dihydro-5,9-diaza-6(4,8)-pyrido[2,3-d]pyrimidina-1(4,1)-piperidina-3(1,3)-benzenacyclotridecaphane-6^7,8-dione] | < 100 nM | < 1000 nM
8 | C/C1=C\CCCCn2c(=O)c(C3CCS(=O)(=O)CC3)cc3c(ncnc32)N[C@H](C)c2cccc(c2)C(F)(F)C2CCN(CC2)C1 [Compound 80, (4R,E)-6^6-(1,1-dioxidotetrahydro-2H-thiopyran-4-yl)-2,2-difluoro-4,12-dimethyl-6^7,6^8-dihydro-5-aza-6(4,8)-pyrido[2,3-d]pyrimidina-1(4,1)-piperidina-3(1,3)-benzenacyclotridecaphan-11-en-6^7-one] | < 100 nM | < 1000 nM
9 | C[C@H]1Nc2ncnc3c2cc(C2CCS(=O)(=O)CC2)c(=O)n3CCCCCCCN2CCC(CC2)C(F)(F)c2cccc1c2 [Compound 83, (4R)-6^6-(1,1-dioxidotetrahydro-2H-thiopyran-4-yl)-2,2-difluoro-4-methyl-6^7,6^8-dihydro-5-aza-6(4,8)-pyrido[2,3-d]pyrimidina-1(4,1)-piperidina-3(1,3)-benzenacyclotridecaphan-6^7-one] | < 100 nM | < 1000 nM
10 | C[C@H]1Nc2ncnc3c2cc(C2CCS(=O)(=O)CC2)c(=O)n3CCCCNC(=O)[C@H](C)N2CCC(CC2)C(F)(F)c2cccc1c2 [Compound 85, (4R,13S)-6^6-(1,1-dioxidotetrahydro-2H-thiopyran-4-yl)-2,2-difluoro-4,13-dimethyl-6^7,6^8-dihydro-5,11-diaza-6(4,8)-pyrido[2,3-d]pyrimidina-1(4,1)-piperidina-3(1,3)-benzenacyclotridecaphane-6^7,12-dione] | < 100 nM | < 1000 nM
11 | C[C@H]1Nc2ncnc3c2cc(C2CCS(=O)(=O)CC2)c(=O)n3CCCCC[C@H](O)CN2CCC(CC2)C(F)(F)c2cccc1c2 [Compound 86, (4R,12S)-6^6-(1,1-dioxidotetrahydro-2H-thiopyran-4-yl)-2,2-difluoro-12-hydroxy-4-methyl-6^7,6^8-dihydro-5-aza-6(4,8)-pyrido[2,3-d]pyrimidina-1(4,1)-piperidina-3(1,3)-benzenacyclotridecaphan-6^7-one] | < 100 nM | < 1000 nM
12 | C[C@H]1Nc2nnc(c3c2cc(C2CCS(=O)(=O)CC2)c(=O)n3C)OCCCCN2CCC(CC2)C(F)(F)c2cccc1c2F [Compound 87, (R)-6^3-(1,1-dioxidotetrahydro-2H-thiopyran-4-yl)-3^2,2,2-trifluoro-6^1,4-dimethyl-6^1,6^2-dihydro-7-oxa-5-aza-6(5,8)-pyrido[2,3-d]pyridazina-1(4,1)-piperidina-3(1,3)-benzenacycloundecaphan-6^2-one] | 100 to 5000 nM | < 1000 nM
13 | Cc1nc2c3cc(C4(C#N)CC4)c(=O)n(c3n1)CCCCCOCC(F)(F)c1cccc(c1F)[C@@H](C)N2 [Compound 88, 1-((3R)-4^2,5,5-trifluoro-1^2,3-dimethyl-1^7-oxo-1^7,1^8-dihydro-7-oxa-2-aza-1(4,8)-pyrido[2,3-d]pyrimidina-4(1,3)-benzenacyclododecaphane-1^6-yl)cyclopropane-1-carbonitrile] | 100 to 5000 nM | > 10000 nM
14 | C[C@H]1Nc2ncnc3c2cc(C2CCS(=O)(=O)CC2)c(=O)n3CCCCCCN2CC(CCC(F)(F)c3cccc1c3F)C2 [Compound 90, (3R)-1^6-(1,1-dioxidotetrahydro-2H-thiopyran-4-yl)-4^2,5,5-trifluoro-3-methyl-1^7,1^8-dihydro-2-aza-1(4,8)-pyrido[2,3-d]pyrimidina-8(3,1)-azetidina-4(1,3)-benzenacyclotetradecaphan-1^7-one] | < 100 nM | < 1000 nM
15 | C[C@H]1Nc2ncnc3c2cc(C2CCS(=O)(=O)CC2)c(=O)n3CCCNC(=O)CCN2CCC(CC2)C(F)(F)c2cccc1c2 [Compound 91, (4R)-6^6-(1,1-dioxidotetrahydro-2H-thiopyran-4-yl)-2,2-difluoro-4-methyl-6^7,6^8-dihydro-5,10-diaza-6(4,8)-pyrido[2,3-d]pyrimidina-1(4,1)-piperidina-3(1,3)-benzenacyclotridecaphane-6^7,11-dione] | < 100 nM | < 1000 nM
16 | C[C@H]1Nc2ncnc3c2cc(C2CCS(=O)(=O)CC2)c(=O)n3CC/C=C\CC(C)(C)CN2CCC(CC2)C(F)(F)c2cccc1c2 [Compound 92, (4R,Z)-6^6-(1,1-dioxidotetrahydro-2H-thiopyran-4-yl)-2,2-difluoro-4,12,12-trimethyl-6^7,6^8-dihydro-5-aza-6(4,8)-pyrido[2,3-d]pyrimidina-1(4,1)-piperidina-3(1,3)-benzenacyclotridecaphan-9-en-6^7-one] | < 100 nM | < 1000 nM
17 | C[C@H]1Nc2ncnc3c2cc(C2(C#N)CC2)c(=O)n3CCCCn2cc(nn2)CN2CCC(CC2)C(F)(F)c2cccc1c2 [Compound 94, 1-((6R,Z)-4,4-difluoro-6-methyl-8^7-oxo-8^7,8^8-dihydro-1^1H-7-aza-8(4,8)-pyrido[2,3-d]pyrimidina-3(1,4)-piperidina-1(4,1)-triazola-5(1,3)-benzenacyclododecaphane-8^6-yl)cyclopropane-1-carbonitrile] | < 100 nM | < 1000 nM
18 | Cc1nc2c3cc(C4(C#N)CC4)c(=O)n(c3n1)CCCC/C=C\COCC(F)(F)c1cccc(c1F)[C@@H](C)N2 [Compound 105, 1-((3R,Z)-4^2,5,5-trifluoro-1^2,3-dimethyl-1^7-oxo-1^7,1^8-dihydro-7-oxa-2-aza-1(4,8)-pyrido[2,3-d]pyrimidina-4(1,3)-benzenacyclotetradecaphan-9-en-1^6-yl)cyclopropane-1-carbonitrile] | < 100 nM | < 1000 nM
19 | C[C@@H]1C(=O)NCCCCn2c(=O)c(C3CCS(=O)(=O)CC3)cc3c(ncnc32)N[C@H](C)c2cccc(c2)C(F)(F)C2CCN1CC2 [Compound 106, (4R,13R)-6^6-(1,1-dioxidotetrahydro-2H-thiopyran-4-yl)-2,2-difluoro-4,13-dimethyl-6^7,6^8-dihydro-5,11-diaza-6(4,8)-pyrido[2,3-d]pyrimidina-1(4,1)-piperidina-3(1,3)-benzenacyclotridecaphane-6^7,12-dione] | < 100 nM | < 1000 nM
20 | C[C@H]1Nc2ncnc3c2cc(C2CCS(=O)(=O)CC2)c(=O)n3CCCCn2cc(nn2)CN2CCC(CC2)C(F)(F)c2cccc1c2F [Compound 108, (6R,Z)-8^6-(1,1-dioxidotetrahydro-2H-thiopyran-4-yl)-5^2,4,4-trifluoro-6-methyl-8^7,8^8-dihydro-11H-7-aza-8(4,8)-pyrido[2,3-d]pyrimidina-3(1,4)-piperidina-1(4,1)-triazola-5(1,3)-benzenacyclododecaphan-8^7-one] | < 100 nM | < 1000 nM
